Measured values as given in patent publication US20180099931A1 (AbbVie S.à.r.l., priority 2016, published 2018).
Like-named read-outs stand apart in the source and are kept apart here.

Target: T1, F508delCFTR (Homo sapiens, UniProt P13569, DEL508-508)
T1 construct: expressed in transfected cells; host or cells: CFBE41o- human lung-derived epithelial cells (CFBE4lo-F508delCFTR-HRP), doxycycline-inducible
Test: Cell Surface Expression-Horse Radish Peroxidase (CSE-HRP) Assay;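 for Maximum % activity (with co-corrector): co-corrector and positive control are both the same reference corrector at 2 µM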;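 for Maximum % activity (without co-corrector): percent of the 2 µM on-plate positive control corrector response above DMSO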
Format: cell-based
Conditions: for Emax / Maximum % activity (with co-corrector): maximum at any tested concentration, normalized to on-plate positive control; for Emax: read-out: Maximum % activity (without co-corrector)

[1] = test compound without co-corrector
[2] = test compound without co-corrector, read-out: EC50 (without co-corrector)
[3] = with co-corrector (2 μM of 3-[(2R,4R)-4-({[1-(2,2-difluoro-1,3-benzodioxol-5-yl)cyclopropyl]carbonyl}amino)-7-methoxy-3,4-dihydro-2H-chromen-2-yl]benzoic acid)
[4] = with co-corrector (2 μM of 3-[(2R,4R)-4-({[1-(2,2-difluoro-1,3-benzodioxol-5-yl)cyclopropyl]carbonyl}amino)-7-methoxy-3,4-dihydro-2H-chromen-2-yl]benzoic acid), read-out: EC50 (with co-corrector)
[5] = CSE-HRP, test compound without co-corrector, read-out: EC50 (without co-corrector)
[6] = CSE-HRP, with co-corrector (2 μM of 3-[(2R,4R)-4-({[1-(2,2-difluoro-1,3-benzodioxol-5-yl)cyclopropyl]carbonyl}amino)-7-methoxy-3,4-dihydro-2H-chromen-2-yl]benzoic acid), read-out: EC50 (with co-corrector)
[7] = CSE-HRP, with co-corrector (2 μM)

T1 sequence (P13569 with tags, fused parts or gaps DEL508-508): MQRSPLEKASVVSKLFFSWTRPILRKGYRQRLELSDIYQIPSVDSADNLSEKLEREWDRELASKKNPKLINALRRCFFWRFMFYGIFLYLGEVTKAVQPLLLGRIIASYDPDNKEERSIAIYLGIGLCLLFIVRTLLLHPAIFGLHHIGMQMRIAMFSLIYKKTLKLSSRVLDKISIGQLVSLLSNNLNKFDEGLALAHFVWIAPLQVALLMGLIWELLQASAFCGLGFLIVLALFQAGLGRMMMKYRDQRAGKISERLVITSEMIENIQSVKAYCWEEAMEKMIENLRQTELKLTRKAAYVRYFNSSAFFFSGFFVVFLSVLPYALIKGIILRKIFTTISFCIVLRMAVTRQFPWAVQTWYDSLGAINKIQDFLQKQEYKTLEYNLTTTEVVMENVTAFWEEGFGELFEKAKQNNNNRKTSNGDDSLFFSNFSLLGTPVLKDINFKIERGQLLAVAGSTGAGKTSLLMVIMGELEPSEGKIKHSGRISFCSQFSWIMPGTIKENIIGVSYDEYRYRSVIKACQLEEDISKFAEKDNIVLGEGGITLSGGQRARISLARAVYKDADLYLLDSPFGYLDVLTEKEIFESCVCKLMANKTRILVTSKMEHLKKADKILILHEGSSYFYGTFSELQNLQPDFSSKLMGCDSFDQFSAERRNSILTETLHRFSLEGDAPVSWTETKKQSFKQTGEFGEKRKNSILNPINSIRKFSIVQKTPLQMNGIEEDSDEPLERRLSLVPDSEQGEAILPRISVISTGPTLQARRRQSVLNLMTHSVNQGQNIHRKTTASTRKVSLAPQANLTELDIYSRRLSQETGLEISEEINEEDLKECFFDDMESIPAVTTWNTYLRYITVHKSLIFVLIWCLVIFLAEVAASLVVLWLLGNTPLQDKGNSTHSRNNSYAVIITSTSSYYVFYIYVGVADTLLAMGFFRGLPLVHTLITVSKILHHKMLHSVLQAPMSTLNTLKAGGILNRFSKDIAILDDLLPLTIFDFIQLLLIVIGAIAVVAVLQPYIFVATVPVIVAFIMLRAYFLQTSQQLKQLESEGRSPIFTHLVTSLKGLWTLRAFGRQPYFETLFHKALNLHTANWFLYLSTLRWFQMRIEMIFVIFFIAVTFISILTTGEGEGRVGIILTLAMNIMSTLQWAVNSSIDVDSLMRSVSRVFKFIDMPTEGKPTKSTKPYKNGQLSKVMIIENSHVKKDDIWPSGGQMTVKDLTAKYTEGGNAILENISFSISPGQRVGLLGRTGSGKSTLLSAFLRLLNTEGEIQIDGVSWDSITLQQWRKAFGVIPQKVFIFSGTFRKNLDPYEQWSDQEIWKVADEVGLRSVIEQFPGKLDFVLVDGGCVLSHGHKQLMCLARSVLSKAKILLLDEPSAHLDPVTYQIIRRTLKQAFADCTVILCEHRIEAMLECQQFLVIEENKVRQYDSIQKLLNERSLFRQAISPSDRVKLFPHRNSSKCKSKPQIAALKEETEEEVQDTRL

Row | Structure (SMILES) | Emax [1] | EC50 [2] | Maximum % activity (with co-corrector) [3] | EC50 [4] | Maximum % activity (with co-corrector) (with co-corrector (2 μM)) | Emax (without co-corrector) | EC50 [5] | EC50 [6] | Maximum % activity (with co-corrector) [7] | Emax (CSE-HRP, without co-corrector)
1 | COc1ncc(C2CCC2)cc1CN[C@H]1[C@H](C(C)(C)C)[C@@H](C(=O)O)N(C(=O)OC(C)C)[C@H]1c1cccnc1OC(C)C [Example 87, (2S,3S,4S,5S)-3-tert-butyl-4-{[(5-cyclobutyl-2-methoxypyridin-3-yl)methyl]amino}-1-{[(propan-2-yl)oxy]carbonyl}-5-{2-[(propan-2-yl)oxy]pyridin-3-yl}pyrrolidine-2-carboxylic acid] |  | 1000 to 10000 nM |  | 1000 to 10000 nM | +++ (≥350) | > 200% |  |  |  | 
2 | COc1ccc(C(C)(C)C)cc1CN[C@H]1[C@H](C(C)(C)C)[C@@H](C(=O)O)N(C(=O)CC2CCCO2)[C@H]1c1ccccc1 (stereo partly shown) [II-235] |  |  |  |  |  |  | 1000 to 10000 nM | 1000 to 10000 nM | +++ (≥350) | > 200%
3 | COc1ccc(C(C)(C)C)cc1CN[C@H]1[C@H](C(C)(C)C)[C@@H](C(=O)O)N(C(=O)C[C@H]2OCCc3ccccc32)[C@H]1c1ccccc1 [II-178] |  |  |  |  |  |  | 1000 to 10000 nM | < 1000 nM | +++ (≥350) | > 200%
4 | COc1ccc(C(C)(C)C)cc1CN[C@H]1[C@H](C(C)(C)C)[C@@H](C(=O)O)N(C(=O)C2CCCC(C(F)(F)F)C2)[C@H]1c1ccccc1 (stereo partly shown) [II-186] |  |  |  |  |  |  | < 1000 nM | < 1000 nM | +++ (≥350) | > 200%
5 | COc1ccc(-c2ccnnc2)cc1CN[C@H]1[C@H](C(C)(C)C)[C@@H](C(=O)O)N(C(=O)C2CCCCC2)[C@H]1c1ccccc1 [Example I-125] |  | > 10000 nM |  | > 10000 nM | + (<150) | < 100% |  |  |  | 
6 | COc1ccc(C(C)(C)C)cc1CN[C@H]1[C@H](C(C)(C)C)[C@@H](C(=O)O)N(C(=O)C(OC)c2ccc(F)c(F)c2)[C@H]1c1ccccc1 (relative stereo) [Example I-159] |  | < 1000 nM |  | < 1000 nM | +++ (≥350) | > 200% |  |  |  | 
7 | COc1ccc(C2(C)CCC2)cc1CN[C@H]1[C@H](C(C)(C)C)[C@@H](C(=O)O)N(C(=O)C2CCCCC2)[C@H]1c1cccnc1OC [Example I-238] |  | 1000 to 10000 nM |  | < 1000 nM | +++ (≥350) | > 200% |  |  |  | 
8 | COc1cc(C(F)(F)F)ccc1CN[C@H]1[C@H](C(C)(C)C)[C@@H](C(=O)O)N(C(=O)[C@@H]2CCC[C@@H](OC)C2)[C@H]1c1ccccc1 [Example I-255] |  |  |  |  |  |  | 1000 to 10000 nM | 1000 to 10000 nM | +++ (≥350) | < 100%
9 | CC(C)(C)[C@@H]1[C@@H](NCc2ccccc2C(F)(F)F)[C@@H](c2ccccc2)N(C(=O)C2CCCCC2)[C@H]1C(=O)O (racemic) [II-31] |  |  |  |  |  |  | 1000 to 10000 nM | 1000 to 10000 nM | +++ (≥350) | < 100%
10 | COCc1ccc(OC)c(CN[C@H]2[C@H](C(C)(C)C)[C@@H](C(=O)O)N(C(=O)C3CCCCC3)[C@H]2c2ccccc2)c1 [II-242] |  |  |  |  |  |  | 1000 to 10000 nM | 1000 to 10000 nM | +++ (≥350) | 100 to 200%
11 | COCc1cc(C)nc(N[C@H]2[C@H](C(C)(C)C)[C@@H](C(=O)O)N(C(=O)C3CCCCC3)[C@H]2c2ccccc2)c1C#N [II-147] |  |  |  |  |  |  | 1000 to 10000 nM | 1000 to 10000 nM | ++ (≥150 and <350) | < 100%
12 | COc1ncc(C(C)(C)C)cc1N[C@H]1[C@H](C(C)(C)C)[C@@H](C(=O)O)N(C(=O)C2CCCCC2)[C@H]1c1ccccc1 [Example 55, (2S,3S,4S,5S)-3-tert-butyl-4-[(5-tert-butyl-2-methoxypyridin-3-yl)amino]-1-(cyclohexanecarbonyl)-5-phenylpyrrolidine-2-carboxylic acid] |  | 1000 to 10000 nM |  | 1000 to 10000 nM | ++ (≥150 and <350) | < 100% |  |  |  | 
13 | COc1nc(C(C)(C)C)ccc1CN[C@H]1[C@H](C(C)(C)C)[C@@H](C(=O)O)N(C(=O)C2CCCC(OC)C2)[C@H]1c1ccccc1 (stereo partly shown) [Example I-197] |  | 1000 to 10000 nM |  | 1000 to 10000 nM | +++ (≥350) | > 200% |  |  |  | 

Continued, values first:

Row | Emax [1] | EC50 [2] | Maximum % activity (with co-corrector) [3] | EC50 [4] | Maximum % activity (with co-corrector) (with co-corrector (2 μM)) | Emax (without co-corrector) | EC50 [5] | EC50 [6] | Maximum % activity (with co-corrector) [7] | Emax (CSE-HRP, without co-corrector) | Structure (SMILES)
14 | < 100% | 1000 to 10000 nM | ++ (≥150 and <350) | 1000 to 10000 nM |  |  |  |  |  |  | COc1ncc(C(F)(F)F)cc1N[C@H]1[C@H](C(C)(C)C)[C@@H](C(=O)O)N(C(=O)[C@@H]2CCCC[C@H]2C(F)(F)F)[C@H]1c1cccnc1N(C)C [II-485]
15 | < 100% | > 10000 nM | ++ (≥150 and <350) | 1000 to 10000 nM |  |  |  |  |  |  | COCCOc1cnc(Cl)cc1CN[C@@H]1[C@@H](C(C)(C)C)[C@H](C(=O)O)N(C(=O)C2CCCCC2)[C@@H]1c1ccccc1 (racemic) [III-72]
16 | > 200% | 1000 to 10000 nM | +++ (≥350) | 1000 to 10000 nM |  |  |  |  |  |  | COc1ncc(-c2ccccc2F)cc1CN[C@H]1[C@H](C(C)(C)C)[C@@H](C(=O)O)N(C(=O)C2CCCCC2)[C@H]1c1cccnc1N(C)C [II-405]
17 | < 100% | 1000 to 10000 nM |  | 1000 to 10000 nM | ++ (≥150 and <350) |  |  |  |  |  | CC(C)(C)[C@H]1[C@H](Nc2cncc3ccccc23)[C@H](c2ccccc2)N(C(=O)C2CCCCC2)[C@@H]1C(=O)O [III-162]
18 | > 200% | 1000 to 10000 nM | +++ (≥350) | 1000 to 10000 nM |  |  |  |  |  |  | COc1ccc(C(C)(C)C)cc1CN[C@H]1[C@H](C(C)(C)C)[C@@H](C(=O)O)N(C(=O)[C@H]2CCCCO2)[C@H]1c1ccccc1 [II-451]
19 | < 100% | 1000 to 10000 nM | ++ (≥150 and <350) | 1000 to 10000 nM |  |  |  |  |  |  | COc1ncc(C(F)(F)F)cc1N[C@H]1[C@H](C(C)(C)C)[C@@H](C(=O)O)N(C(=O)C2C3CCCC32)[C@H]1c1cccnc1N(C)C (stereo partly shown) [II-483]
20 | < 100% | > 10000 nM | ++ (≥150 and <350) | 1000 to 10000 nM |  |  |  |  |  |  | CO[C@@H](C(=O)N1[C@H](C(=O)O)[C@@H](C(C)(C)C)[C@H](Nc2cc(C(F)(F)F)cc(C)n2)[C@@H]1c1ccccc1)c1ccccc1 [III-78]
21 | 100 to 200% | 1000 to 10000 nM | +++ (≥350) | 1000 to 10000 nM |  |  |  |  |  |  | COc1ncc(C2(C)CC2)cc1CN[C@H]1[C@H](C(C)(C)C)[C@@H](C(=O)O)N(C(=O)C2CCCCC2)[C@H]1c1ccccc1 [II-440]
22 | < 100% | > 10000 nM |  | 1000 to 10000 nM | ++ (≥150 and <350) |  |  |  |  |  | Cn1c(=O)c2c(N[C@H]3[C@H](C(C)(C)C)[C@@H](C(=O)O)N(C(=O)C4CCCCC4)[C@H]3c3ccccc3)nccc2n(C)c1=O [III-157]
23 | < 100% | 1000 to 10000 nM | ++ (≥150 and <350) | 1000 to 10000 nM |  |  |  |  |  |  | COc1ccc(C(F)(F)F)cc1CN[C@@H]1[C@@H](C(C)(C)C)[C@@H](C(=O)O)N(C(=O)[C@H](OC)c2ccccc2)[C@H]1c1ccccc1 [II-395]
24 | > 200% | 1000 to 10000 nM | +++ (≥350) | 1000 to 10000 nM |  |  |  |  |  |  | COc1ccc(-c2ccccc2)cc1CN[C@H]1[C@H](C(C)(C)C)[C@@H](C(=O)O)N(C(=O)OC(C)C)[C@H]1c1cccnc1N(C)C [II-547]
25 | 100 to 200% | < 1000 nM |  | < 1000 nM | +++ (≥350) |  |  |  |  |  | COc1ncc(C2CCC2)cc1CN[C@H]1[C@H](C(C)(C)C)[C@@H](C(=O)O)N(C(=O)C2CCCCC2C(F)(F)F)[C@H]1c1ccccc1 (stereo partly shown) [III-214]
26 | > 200% | < 1000 nM |  | < 1000 nM | +++ (≥350) |  |  |  |  |  | COc1ccc(C(C)(C)C)cc1CN[C@H]1[C@H](C(C)(C)C)[C@@H](C(=O)O)N(C(=O)C2C3C2[C@H]2CC[C@@H]3C2)[C@H]1c1ccccc1 (stereo partly shown) [III-192]
27 | < 100% | 1000 to 10000 nM |  | 1000 to 10000 nM | ++ (≥150 and <350) |  |  |  |  |  | COc1ccc(C(F)(F)F)c(CN[C@@H]2[C@@H](C(C)(C)C)[C@H](C(=O)O)N(C(=O)C3CCCCC3)[C@@H]2c2ccccc2)c1 (racemic) [III-106]
28 |  |  |  |  |  |  | 1000 to 10000 nM | 1000 to 10000 nM | +++ (≥350) | 100 to 200% | COc1ccc(Br)cc1CN[C@H]1[C@H](C(C)(C)C)[C@@H](C(=O)O)N(C(=O)C2CCCCC2)[C@H]1c1ccccc1F [II-262]
29 | 100 to 200% | 1000 to 10000 nM | +++ (≥350) | < 1000 nM |  |  |  |  |  |  | COc1cc(C(F)(F)F)ccc1CN[C@H]1[C@H](C(C)(C)C)[C@@H](C(=O)O)N(C(=O)C2CCCC(F)(F)C2)[C@H]1c1ccccc1 (stereo partly shown) [II-508]
30 | 100 to 200% | 1000 to 10000 nM | +++ (≥350) | 1000 to 10000 nM |  |  |  |  |  |  | COc1ncc(N2CCCC2)cc1CN[C@H]1[C@H](C(C)(C)C)[C@@H](C(=O)O)N(C(=O)OC(C)C)[C@H]1c1cccnc1N(C)C [II-577]
31 |  |  |  |  |  |  | 1000 to 10000 nM | 1000 to 10000 nM | +++ (≥350) | > 200% | COc1ccc(C(C)(C)C)cc1CN[C@H]1[C@H](C(C)(C)C)[C@@H](C(=O)O)N(C(=O)C2CC(C)C2)[C@H]1c1ccccc1 (stereo partly shown) [II-306]
